Test results taken from PubChem BioAssay AID1259407 (Chemical Carcinogenesis Research Information System (CCRIS), 2018).
The source made the active and inactive calls. No rule for the calls is given here.

Tested on: CCRIS mutagenicity, Ames/micronucleus/aberration tests
Assay: CCRIS mutagenicity studies

Compound: COC(=O)Nc1nc2ccccc2[nH]1
- mutagenic call (End Point: IN VITRO CHROMOSOMAL ABERRATIONS, Test System: HUMAN PERIPHERAL LYMPHOCYTES, Metabolic Activation: RAT, LIVER, S-9, AROCLOR 1254): inactive; negative
- mutagenic call (End Point: IN VITRO MICRONUCLEUS, Test System: HUMAN PERIPHERAL LYMPHOCYTES, Metabolic Activation: NONE): active; positive
- mutagenic call (End Point: IN VITRO MICRONUCLEUS, Test System: V79 CELLS, Metabolic Activation: NONE): active; positive
- mutagenic call (End Point: In vitro micronucleus, Test System: Mouse lymphoma L5178Y cells, Metabolic Activation: None): active; positive
- mutagenic call (End Point: In vivo micronucleus, Test System: Micronucleated, binucleated and multinucleated hepatocytes, Species: Mouse, Strain/Sex: ddY/Male, Route: Oral): active; positive for micronucleated, binucleated and multinucleated cells when agent adm
- mutagenic call (Test System: AMES SALMONELLA TYPHIMURIUM, Strain/Indicator: TA97, Metabolic Activation: NONE, Method: PREINCUBATION): inactive; negative
- mutagenic call (Test System: AMES SALMONELLA TYPHIMURIUM, Strain/Indicator: TA97, Metabolic Activation: NONE, Method: STANDARD PLATE): inactive; negative
- mutagenic call (Test System: AMES SALMONELLA TYPHIMURIUM, Strain/Indicator: TA97, Metabolic Activation: RAT, LIVER, S-9, PHENOBARBITAL AND BETA-NAPHTHOFLAVONE, Method: PREINCUBATION): active; positive
- mutagenic call (Test System: AMES SALMONELLA TYPHIMURIUM, Strain/Indicator: TA97, Metabolic Activation: RAT, LIVER, S-9, PHENOBARBITAL AND BETA-NAPHTHOFLAVONE, Method: STANDARD PLATE): inactive; negative
- mutagenic call (Test System: AMES SALMONELLA TYPHIMURIUM, Strain/Indicator: TA97A, Metabolic Activation: NONE, Method: STANDARD PLATE): inactive; negative
- mutagenic call (Test System: AMES SALMONELLA TYPHIMURIUM, Strain/Indicator: TA97A, Metabolic Activation: PLANT, HOMOGENATE, S-14, Method: STANDARD PLATE): inactive; negative
- mutagenic call (Test System: AMES SALMONELLA TYPHIMURIUM, Strain/Indicator: TA97A, Metabolic Activation: S-9, Method: STANDARD PLATE): inactive; negative
- mutagenic call (Test System: AMES SALMONELLA TYPHIMURIUM, Strain/Indicator: TA98, Metabolic Activation: HAMSTER, LIVER, S-9, AROCLOR 1254 (10%), Method: PREINCUBATION): active; positive
- mutagenic call (Test System: AMES SALMONELLA TYPHIMURIUM, Strain/Indicator: TA98, Metabolic Activation: NONE, Method: PREINCUBATION): inactive; negative
- mutagenic call (Test System: AMES SALMONELLA TYPHIMURIUM, Strain/Indicator: TA98, Metabolic Activation: PLANT, HOMOGENATE, S-14, Method: STANDARD PLATE): inactive; negative
- mutagenic call (Test System: AMES SALMONELLA TYPHIMURIUM, Strain/Indicator: TA98, Metabolic Activation: RAT, LIVER, S-9, AROCLOR 1254 (10%), Method: PREINCUBATION): active; positive
- mutagenic call (Test System: AMES SALMONELLA TYPHIMURIUM, Strain/Indicator: TA98, Metabolic Activation: RAT, LIVER, S-9, PHENOBARBITAL AND BETA-NAPHTHOFLAVONE, Method: PREINCUBATION): active; positive
- mutagenic call (Test System: AMES SALMONELLA TYPHIMURIUM, Strain/Indicator: TA98, Metabolic Activation: RAT, LIVER, S-9, PHENOBARBITAL AND BETA-NAPHTHOFLAVONE, Method: STANDARD PLATE): active; positive
- mutagenic call (Test System: AMES SALMONELLA TYPHIMURIUM, Strain/Indicator: TA98, Metabolic Activation: RAT, LIVER, S-9, PHENOBARBITONE, Method: PREINCUBATION): inactive; negative
- mutagenic call (Test System: AMES SALMONELLA TYPHIMURIUM, Strain/Indicator: TA98, Metabolic Activation: S-9, Method: STANDARD PLATE): inactive; negative
- mutagenic call (Test System: AMES SALMONELLA TYPHIMURIUM, Strain/Indicator: TA100, Metabolic Activation: HAMSTER, LIVER, S-9, AROCLOR 1254 (10%), Method: PREINCUBATION): inactive; negative
- mutagenic call (Test System: AMES SALMONELLA TYPHIMURIUM, Strain/Indicator: TA100, Metabolic Activation: NONE, Method: PREINCUBATION): inactive; negative
- mutagenic call (Test System: AMES SALMONELLA TYPHIMURIUM, Strain/Indicator: TA100, Metabolic Activation: PLANT, HOMOGENATE, S-14, Method: STANDARD PLATE): inactive; negative
- mutagenic call (Test System: AMES SALMONELLA TYPHIMURIUM, Strain/Indicator: TA100, Metabolic Activation: RAT, LIVER, S-9, AROCLOR 1254 (10%), Method: PREINCUBATION): inactive; negative
- mutagenic call (Test System: AMES SALMONELLA TYPHIMURIUM, Strain/Indicator: TA100, Metabolic Activation: RAT, LIVER, S-9, AROCLOR 1254, Method: STANDARD PLATE): inactive; negative
- mutagenic call (Test System: AMES SALMONELLA TYPHIMURIUM, Strain/Indicator: TA100, Metabolic Activation: RAT, LIVER, S-9, PHENOBARBITAL AND BETA-NAPHTHOFLAVONE, Method: PREINCUBATION): inactive; negative
- mutagenic call (Test System: AMES SALMONELLA TYPHIMURIUM, Strain/Indicator: TA100, Metabolic Activation: RAT, LIVER, S-9, PHENOBARBITAL AND BETA-NAPHTHOFLAVONE, Method: STANDARD PLATE): inactive; negative
- mutagenic call (Test System: AMES SALMONELLA TYPHIMURIUM, Strain/Indicator: TA100, Metabolic Activation: RAT, LIVER, S-9, PHENOBARBITONE, Method: PREINCUBATION): inactive; negative
- mutagenic call (Test System: AMES SALMONELLA TYPHIMURIUM, Strain/Indicator: TA100, Metabolic Activation: S-9, Method: STANDARD PLATE): inactive; negative
- mutagenic call (Test System: AMES SALMONELLA TYPHIMURIUM, Strain/Indicator: TA102, Metabolic Activation: NONE, Method: PREINCUBATION): inactive; negative
- mutagenic call (Test System: AMES SALMONELLA TYPHIMURIUM, Strain/Indicator: TA102, Metabolic Activation: NONE, Method: STANDARD PLATE): inactive; negative
- mutagenic call (Test System: AMES SALMONELLA TYPHIMURIUM, Strain/Indicator: TA102, Metabolic Activation: RAT, LIVER, S-9, PHENOBARBITAL AND BETA-NAPHTHOFLAVONE, Method: PREINCUBATION): inactive; negative
- mutagenic call (Test System: AMES SALMONELLA TYPHIMURIUM, Strain/Indicator: TA102, Metabolic Activation: RAT, LIVER, S-9, PHENOBARBITAL AND BETA-NAPHTHOFLAVONE, Method: STANDARD PLATE): inactive; negative
- mutagenic call (Test System: AMES SALMONELLA TYPHIMURIUM, Strain/Indicator: TA1535, Metabolic Activation: HAMSTER, LIVER, S-9, AROCLOR 1254 (10%), Method: PREINCUBATION): inactive; negative
- mutagenic call (Test System: AMES SALMONELLA TYPHIMURIUM, Strain/Indicator: TA1535, Metabolic Activation: NONE, Method: PREINCUBATION): inactive; negative
- mutagenic call (Test System: AMES SALMONELLA TYPHIMURIUM, Strain/Indicator: TA1535, Metabolic Activation: PLANT, HOMOGENATE, S-14, Method: STANDARD PLATE): inactive; negative
- mutagenic call (Test System: AMES SALMONELLA TYPHIMURIUM, Strain/Indicator: TA1535, Metabolic Activation: RAT, LIVER, S-9, AROCLOR 1254 (10%), Method: PREINCUBATION): inactive; negative
- mutagenic call (Test System: AMES SALMONELLA TYPHIMURIUM, Strain/Indicator: TA1535, Metabolic Activation: RAT, LIVER, S-9, AROCLOR 1254, Method: STANDARD PLATE): inactive; negative
- mutagenic call (Test System: AMES SALMONELLA TYPHIMURIUM, Strain/Indicator: TA1535, Metabolic Activation: RAT, LIVER, S-9, PHENOBARBITAL AND BETA-NAPHTHOFLAVONE, Method: PREINCUBATION): inactive; negative
- mutagenic call (Test System: AMES SALMONELLA TYPHIMURIUM, Strain/Indicator: TA1535, Metabolic Activation: RAT, LIVER, S-9, PHENOBARBITAL AND BETA-NAPHTHOFLAVONE, Method: STANDARD PLATE): inactive; negative
- mutagenic call (Test System: AMES SALMONELLA TYPHIMURIUM, Strain/Indicator: TA1535, Metabolic Activation: S-9, Method: STANDARD PLATE): inactive; negative
- mutagenic call (Test System: AMES SALMONELLA TYPHIMURIUM, Strain/Indicator: TA1537, Metabolic Activation: HAMSTER, LIVER, S-9, AROCLOR 1254 (10%), Method: PREINCUBATION): active; positive
- mutagenic call (Test System: AMES SALMONELLA TYPHIMURIUM, Strain/Indicator: TA1537, Metabolic Activation: NONE, Method: PREINCUBATION): inactive; negative
- mutagenic call (Test System: AMES SALMONELLA TYPHIMURIUM, Strain/Indicator: TA1537, Metabolic Activation: RAT, LIVER, S-9, AROCLOR 1254 (10%), Method: PREINCUBATION): active; positive
- mutagenic call (Test System: AMES SALMONELLA TYPHIMURIUM, Strain/Indicator: TA1537, Metabolic Activation: RAT, LIVER, S-9, AROCLOR 1254, Method: STANDARD PLATE): inactive; negative
- mutagenic call (Test System: AMES SALMONELLA TYPHIMURIUM, Strain/Indicator: TA1537, Metabolic Activation: RAT, LIVER, S-9, PHENOBARBITAL AND BETA-NAPHTHOFLAVONE, Method: PREINCUBATION): active; positive
- mutagenic call (Test System: AMES SALMONELLA TYPHIMURIUM, Strain/Indicator: TA1537, Metabolic Activation: RAT, LIVER, S-9, PHENOBARBITAL AND BETA-NAPHTHOFLAVONE, Method: STANDARD PLATE): inactive; negative
- mutagenic call (Test System: AMES SALMONELLA TYPHIMURIUM, Strain/Indicator: TA1538, Metabolic Activation: NONE, Method: PREINCUBATION): inactive; negative
- mutagenic call (Test System: AMES SALMONELLA TYPHIMURIUM, Strain/Indicator: TA1538, Metabolic Activation: NONE, Method: STANDARD PLATE): inactive; negative
- mutagenic call (Test System: AMES SALMONELLA TYPHIMURIUM, Strain/Indicator: TA1538, Metabolic Activation: RAT, LIVER, S-9, AROCLOR 1254, Method: STANDARD PLATE): inactive; negative
- mutagenic call (Test System: AMES SALMONELLA TYPHIMURIUM, Strain/Indicator: TA1538, Metabolic Activation: RAT, LIVER, S-9, PHENOBARBITAL AND BETA-NAPHTHOFLAVONE, Method: PREINCUBATION): active; positive
- mutagenic call (Test System: AMES SALMONELLA TYPHIMURIUM, Strain/Indicator: TA1538, Metabolic Activation: RAT, LIVER, S-9, PHENOBARBITAL AND BETA-NAPHTHOFLAVONE, Method: STANDARD PLATE): active; positive
- mutagenic call (Test System: Mouse lymphoma, Strain/Indicator: L5178Y (tk+/tk-)/Trifluorothymidine, Metabolic Activation: None, Method: Microtiter): active; positive
